# Test results reported in PMC7235175, “Analysis of Pigment-Dispersing Factor Neuropeptides and Their Receptor in a Velvet Worm” (Frontiers in Endocrinology, 2020).
# “Also recorded” adds a separate entry of the source.
# Tested on: PDF receptor Er-PDFR of E. rowelli
# Assay: BRET assay: cAMP response (Epac-L sensor) of HEK293T cells transfected with Er-PDFR
# Format: cell-based, Euperipatoides rowelli
# Settings: for activation of Er-PDFR (cAMP response) / potency of PDF-II relative to PDF-I as activating ligand: HEK293T, Epac-L BRET, n = 8; for activation of Er-PDFR (cAMP response): Rm-MIP7 as control (unrelated peptide); for potency of PDF-II relative to PDF-I as activating ligand: comparison of activation by the two peptides
# Protocol: HEK293T cells were seeded on 96-well Nunc plates (Thermo Fisher Scientific, Waltham, MA, USA) at a density of 2 ×10^4 cells/well and cultured in DMEM high glucose (Sigma-Aldrich Chemie GmbH, Munich, Germany) supplemented with 10% fetal bovine serum and 5% CO2 at 37°C. After 24 h, cells were transfected using polyethyleneimine (25 kDa PEI, linear; Polysciences Europe GmbH, Hirschberg an der Bergstrasse, Germany) with GFP2-hEpac1E157-P881-Rluc8 [Epac-L; modified from ([83]–[85])] and pcDNA3.1-ErPDFR-3K10 in a 1:1 ratio (100 ng total DNA/well). Cells were washed with HBSS (Thermo Fisher Scientific) 2 days after transfection and stimulated with different concentrations of synthetic PDF peptides (10^−11 to 10^−5 M final concentration) together with the substrate coelenterazine 400A (“DeepBlueC”; BIOTREND Chemikalien GmbH, Cologne, Germany) at a final concentration of 5 μM in a total volume of 50 μL HBSS. Control experiments were conducted with cells expressing Epac-L alone, stimulation without PDF peptides, stimulation using an unrelated peptide (myoinhibitory peptide 7 from the cockroach Rhyparobia maderae), and stimulation with forskolin (50 μM final concentration; Sigma-Aldrich Chemie GmbH) + IBMX (100 μM final concentration; Sigma-Aldrich Chemie GmbH), respectively. The raw luminescence was measured immediately after stimulation at wavelengths of 410 ± 80 nm for the donor and 515 ± 30 nm for the acceptor in eight biological replicates for each tested PDF peptide concentration (n = 8) using a POLARstar Omega microplate reader (BMG Labtech, Cary, NC, USA). Their ratios [emission (410 nm)/emission (515 nm)] were box plotted as relative luminescence against the respective PDF concentration in dose response curves.
Substance,"activation threshold (minimum concentration required for PDFR stimulation) (HEK293T cells co-transfected with Epac-L and pcDNA3.1-ErPDFR-3K10 (1:1), peptide 10^−11 to 10^−5 M, coelenterazine 400A 5 μM in HBSS, emission 410/515 nm read immediately after stimulation, n = 8 biological replicates)",activation of Er-PDFR (cAMP response) (peptide 10^−11 to 10^−5 M),potency of PDF-II relative to PDF-I as activating ligand,potency of PDF-II relative to PDF-I as activating ligand (listed as PDF-II)
"CNAELINSLLGLPKMMNDA-NH2 [Er-PDF-I, HPLC-purified synthetic pigment-dispersing factor peptide I of Euperipatoides rowelli]",10^−6 M,"activated by both PDF peptides of E. rowelli, Er-PDF-I and Er-PDF-II, in a dose-dependent manner; also recorded: activated by Er-PDF-I and Er-PDF-II in a distinct and dose-dependent manner",,
"CNAELINSLLNLPQKLQEA-NH2 [Er-PDF-II, HPLC-purified synthetic pigment-dispersing factor peptide II of Euperipatoides rowelli]",,"activated by both PDF peptides of E. rowelli, Er-PDF-I and Er-PDF-II, in a dose-dependent manner; also recorded: activated by Er-PDF-I and Er-PDF-II in a distinct and dose-dependent manner",one order of magnitude more potent than Er-PDF-I,tenfold higher potency than PDF-I
